Values of other authors, collected in patent US20050267212A1, “Omega-3 fatty acids in the treatment of depression” (priority 1997, published 2005).

Target: T1, cyclooxygenase-2 (Homo sapiens, UniProt P35354)
T1 sequence (P35354 18-604): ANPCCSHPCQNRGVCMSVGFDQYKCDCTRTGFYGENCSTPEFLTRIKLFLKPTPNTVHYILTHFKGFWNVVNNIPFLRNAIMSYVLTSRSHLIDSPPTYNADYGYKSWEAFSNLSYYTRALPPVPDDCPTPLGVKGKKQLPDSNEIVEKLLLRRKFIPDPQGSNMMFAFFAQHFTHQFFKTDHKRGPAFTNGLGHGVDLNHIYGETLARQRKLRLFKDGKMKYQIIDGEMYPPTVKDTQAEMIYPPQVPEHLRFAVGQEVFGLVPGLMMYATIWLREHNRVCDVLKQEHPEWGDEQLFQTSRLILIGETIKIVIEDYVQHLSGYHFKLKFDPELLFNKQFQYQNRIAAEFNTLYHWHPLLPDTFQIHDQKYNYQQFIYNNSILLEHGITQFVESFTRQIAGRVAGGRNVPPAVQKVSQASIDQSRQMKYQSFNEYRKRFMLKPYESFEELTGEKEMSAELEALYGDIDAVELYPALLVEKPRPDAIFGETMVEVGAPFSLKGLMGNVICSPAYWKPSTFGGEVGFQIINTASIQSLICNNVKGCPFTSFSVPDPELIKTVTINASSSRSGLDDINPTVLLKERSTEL
Settings: cultured human mast cells

CC/C=C\C/C=C\C/C=C\C/C=C\C/C=C\CCCC(=O)O [EPA, eicosapentanoic acid]
effect on cyclooxygenase-2: direct inhibition
